Tests used:
Test in all cases: Test E greenhouse herbicide test, pre- and postemergence
Format in all cases: in vivo
[1] = system: Italian ryegrass (Lolium multiflorum)
In short: (§1)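 For each species, sown seed in silt loam and young plants (2 to 18 cm) in a peat/vermiculite medium were each treated with compound dissolved in surfactant-containing, non-phytotoxic solvent. After 14 to 21 d under greenhouse conditions, effects were visually rated, 100 meaning complete control.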

[2] = system: barnyardgrass (Echinochloa crus-galli)
In short: as §1

[3] = system: beggarticks (hairy beggarticks, Bidens pilosa)
In short: as §1

corn (Zea mays) = system: corn (Zea mays)
In short: as §1

[4] = system: crabgrass, Brazilian (Brazilian crabgrass, Digitaria horizontalis)
In short: as §1

[5] = system: crabgrass, large (large crabgrass, Digitaria sanguinalis); conditions: Preemergence
In short: as §1

[6] = system: field bindweed (Convolvulus arvensis)
In short: as §1

[7] = system: foxtail, giant (giant foxtail, Setaria faberii); conditions: Preemergence
In short: as §1

[8] = system: foxtail, green (green foxtail, Setaria viridis); conditions: Preemergence
In short: as §1

[9] = system: horseweed (Conyza canadensis); conditions: Preemergence
In short: as §1

kochia (Kochia scoparia) = system: kochia (Kochia scoparia)
In short: as §1

[10] = system: momingglory (Ipomoea coccinea); conditions: Preemergence
In short: as §1

[11] = system: nutsedge, yellow (yellow nutsedge, Cyperus esculentus); conditions: Preemergence
In short: as §1

[12] = system: panicum, fall (fall panicum, Panicum dichotomiflorum)
In short: as §1

[13] = system: pigweed, palmer (palmer pigweed, Amaranthus palmeri)
In short: as §1

[14] = system: ragweed (common ragweed, Ambrosia elatior)
In short: as §1

[15] = system: velvetleaf (Abutilon theophrasti); conditions: Preemergence
In short: as §1

[16] = 62 g ai/ha, Postemergence, scale 0 to 100 (0 no effect, 100 complete control)
[17] = 62 g ai/ha, Preemergence, scale 0 to 100 (0 no effect, 100 complete control)
[18] = 125 g ai/ha, Postemergence, scale 0 to 100 (0 no effect, 100 complete control)
[19] = 125 g ai/ha, Preemergence, scale 0 to 100 (0 no effect, 100 complete control)
[20] = 250 g ai/ha, Postemergence, scale 0 to 100 (0 no effect, 100 complete control)
[21] = Postemergence, 31 g ai/ha, visual, scale 0 no effect to 100 complete control
[22] = Preemergence, 31 g ai/ha, scale 0 to 100, 0 no effect, 100 complete control
[23] = Preemergence, 250 g ai/ha, visual, scale 0 no effect to 100 complete control
[24] = Preemergence, 125 g ai/ha, visual, scale 0 no effect to 100 complete control
[25] = 62 g ai/ha, scale 0 to 100 (0 no effect, 100 complete control)
[26] = 125 g ai/ha, visual, scale 0 no effect to 100 complete control
[27] = 250 g ai/ha, visual, scale 0 no effect to 100 complete control
[28] = 31 g ai/ha, scale 0 to 100, 0 no effect, 100 complete control
[29] = 125 g ai/ha, scale 0 to 100 (0 no effect, 100 complete control)

## CC(=O)Oc1c(C)nn(C)c(=O)c1-c1c(C)sc2ccc(C)cc12 [Compound 25]
[1]; [16]
  Plant response rating, Ryegrass, Italian: 80
[1]; [17]
  Plant response rating, Ryegrass, Italian: 95
[1]; [18]
  Plant response rating, Ryegrass, Italian: 85
[1]; [19]
  Plant response rating, Ryegrass, Italian: 98
[1]; [20]
  Plant response rating, Ryegrass, Italian: 90
[1]; [21]
  Plant response rating, Ryegrass, Italian: 75
[1]; [22]
  Plant response rating, Ryegrass, Italian: 95
[1]; [23]
  Plant response rating, Ryegrass, Italian: 100
[2]; [16]
  Plant response rating, Barnyardgrass: 50
[2]; [17]
  Plant response rating, Barnyardgrass: 60
[2]; [18]
  Plant response rating, Barnyardgrass: 50
[2]; [20]
  Plant response rating, Barnyardgrass: 50
[2]; [21]
  Plant response rating, Barnyardgrass: 40
[2]; [22]
  Plant response rating, Barnyardgrass: 20
[2]; [24]
  Plant response rating, Barnyardgrass: 60
[2]; [23]
  Plant response rating, Barnyardgrass: 90
[3]; [16]
  Plant response rating, Beggarticks: 100
[3]; [17]
  Plant response rating, Beggarticks: 100
[3]; [18]
  Plant response rating, Beggarticks: 100
[3]; [20]
  Plant response rating, Beggarticks: 100
[3]; [21]
  Plant response rating, Beggarticks: 100
[3]; [22]
  Plant response rating, Beggarticks: 100
[3]; [24]
  Plant response rating, Beggarticks: 100
[3]; [23]
  Plant response rating, Beggarticks: 100
Corn (Zea mays); [16]
  Plant response rating, Corn: 20
Corn (Zea mays); [17]
  Plant response rating, Corn: 0
Corn (Zea mays); [18]
  Plant response rating, Corn: 20
Corn (Zea mays); [20]
  Plant response rating, Corn: 15
Corn (Zea mays); [21]
  Plant response rating, Corn: 10
Corn (Zea mays); [22]
  Plant response rating, Corn: 0
Corn (Zea mays); [24]
  Plant response rating, Corn: 0
Corn (Zea mays); [23]
  Plant response rating, Corn: 0
[4]; [16]
  Plant response rating, Crabgrass, Brazil: 40
[4]; [17]
  Plant response rating, Crabgrass, Brazil: 90
[4]; [18]
  Plant response rating, Crabgrass, Brazil: 50
[4]; [20]
  Plant response rating, Crabgrass, Brazil: 50
[4]; [21]
  Plant response rating, Crabgrass, Brazil: 30
[4]; [22]
  Plant response rating, Crabgrass, Brazil: 75
[4]; [24]
  Plant response rating, Crabgrass, Brazil: 95
[4]; [23]
  Plant response rating, Crabgrass, Brazil: 95
[5]; [25]
  Plant response rating, Crabgrass, Large: 15
[5]; [26]
  Plant response rating, Crabgrass, Large: 80
[5]; [27]
  Plant response rating, Crabgrass, Large: 85
[6]; [16]
  Plant response rating, Field Bindweed: 95
[6]; [17]
  Plant response rating, Field Bindweed: 98
[6]; [18]
  Plant response rating, Field Bindweed: 95
[6]; [20]
  Plant response rating, Field Bindweed: 90
[6]; [21]
  Plant response rating, Field Bindweed: 90
[6]; [22]
  Plant response rating, Field Bindweed: 80
[6]; [24]
  Plant response rating, Field Bindweed: 60
[6]; [23]
  Plant response rating, Field Bindweed: 98
[7]; [25]
  Plant response rating, Foxtail, Giant: 95
[7]; [28]
  Plant response rating, Foxtail, Giant: 80
[7]; [26]
  Plant response rating, Foxtail, Giant: 98
[7]; [27]
  Plant response rating, Foxtail, Giant: 100
[8]; [25]
  Plant response rating, Foxtail, Green: 98
[8]; [28]
  Plant response rating, Foxtail, Green: 65
[8]; [26]
  Plant response rating, Foxtail, Green: 98
[8]; [27]
  Plant response rating, Foxtail, Green: 100
[9]; [25]
  Plant response rating, Horseweed: 100
[9]; [28]
  Plant response rating, Horseweed: 100
[9]; [26]
  Plant response rating, Horseweed: 100
[9]; [27]
  Plant response rating, Horseweed: 100
Kochia (Kochia scoparia); [16]
  Plant response rating, Kochia: 95
Kochia (Kochia scoparia); [17]
  Plant response rating, Kochia: 80
Kochia (Kochia scoparia); [18]
  Plant response rating, Kochia: 100
Kochia (Kochia scoparia); [20]
  Plant response rating, Kochia: 98
Kochia (Kochia scoparia); [21]
  Plant response rating, Kochia: 90
Kochia (Kochia scoparia); [22]
  Plant response rating, Kochia: 20
Kochia (Kochia scoparia); [24]
  Plant response rating, Kochia: 98
Kochia (Kochia scoparia); [23]
  Plant response rating, Kochia: 100
[10]; [25]
  Plant response rating, Morningglory: 70
[10]; [29]
  Plant response rating, Morningglory: 95
[10]; [28]
  Plant response rating, Morningglory: 65
[10]; [27]
  Plant response rating, Morningglory: 100
[11]; [25]
  Plant response rating, Nutsedge, Yellow: 20
[11]; [29]
  Plant response rating, Nutsedge, Yellow: 20
[11]; [28]
  Plant response rating, Nutsedge, Yellow: 0
[11]; [27]
  Plant response rating, Nutsedge, Yellow: 65
[12]; [16]
  Plant response rating, Panicum, Fall: 50
[12]; [17]
  Plant response rating, Panicum, Fall: 100
[12]; [18]
  Plant response rating, Panicum, Fall: 80
[12]; [19]
  Plant response rating, Panicum, Fall: 100
[12]; [20]
  Plant response rating, Panicum, Fall: 90
[12]; [21]
  Plant response rating, Panicum, Fall: 50
[12]; [22]
  Plant response rating, Panicum, Fall: 95
[12]; [23]
  Plant response rating, Panicum, Fall: 100
[13]; [16]
  Plant response rating, Pigweed, Palmer: 80
[13]; [17]
  Plant response rating, Pigweed, Palmer: 90
[13]; [18]
  Plant response rating, Pigweed, Palmer: 100
[13]; [19]
  Plant response rating, Pigweed, Palmer: 100
[13]; [20]
  Plant response rating, Pigweed, Palmer: 85
[13]; [21]
  Plant response rating, Pigweed, Palmer: 75
[13]; [22]
  Plant response rating, Pigweed, Palmer: 65
[13]; [23]
  Plant response rating, Pigweed, Palmer: 100
[14]; [16]
  Plant response rating, Ragweed: 90
[14]; [17]
  Plant response rating, Ragweed: 95
[14]; [18]
  Plant response rating, Ragweed: 90
[14]; [19]
  Plant response rating, Ragweed: 98
[14]; [20]
  Plant response rating, Ragweed: 95
[14]; [21]
  Plant response rating, Ragweed: 90
[14]; [22]
  Plant response rating, Ragweed: 75
[14]; [23]
  Plant response rating, Ragweed: 100
[15]; [25]
  Plant response rating, Velvetleaf: 100
[15]; [29]
  Plant response rating, Velvetleaf: 98
[15]; [28]
  Plant response rating, Velvetleaf: 60
[15]; [27]
  Plant response rating, Velvetleaf: 100

## CC(=O)Oc1c(C)nn(C)c(=O)c1-c1c(C)sc2c(C)cc(C)cc12 [Compound 27]
[1]; [17]
  Plant response rating, Ryegrass, Italian: 95
[1]; [19]
  Plant response rating, Ryegrass, Italian: 100
[1]; [22]
  Plant response rating, Ryegrass, Italian: 80
[1]; [23]
  Plant response rating, Ryegrass, Italian: 100
[2]; [17]
  Plant response rating, Barnyardgrass: 50
[2]; [22]
  Plant response rating, Barnyardgrass: 15
[2]; [24]
  Plant response rating, Barnyardgrass: 80
[2]; [23]
  Plant response rating, Barnyardgrass: 95
[3]; [17]
  Plant response rating, Beggarticks: 100
[3]; [22]
  Plant response rating, Beggarticks: 90
[3]; [24]
  Plant response rating, Beggarticks: 100
[3]; [23]
  Plant response rating, Beggarticks: 100
Corn (Zea mays); [17]
  Plant response rating, Corn: 0
Corn (Zea mays); [22]
  Plant response rating, Corn: 0
Corn (Zea mays); [24]
  Plant response rating, Corn: 0
Corn (Zea mays); [23]
  Plant response rating, Corn: 0
[4]; [17]
  Plant response rating, Crabgrass, Brazil: 70
[4]; [22]
  Plant response rating, Crabgrass, Brazil: 70
[4]; [24]
  Plant response rating, Crabgrass, Brazil: 95
[4]; [23]
  Plant response rating, Crabgrass, Brazil: 95
[5]; [25]
  Plant response rating, Crabgrass, Large: 50
[5]; [28]
  Plant response rating, Crabgrass, Large: 35
[5]; [26]
  Plant response rating, Crabgrass, Large: 50
[5]; [27]
  Plant response rating, Crabgrass, Large: 90
[6]; [17]
  Plant response rating, Field Bindweed: 40
[6]; [22]
  Plant response rating, Field Bindweed: 0
[6]; [24]
  Plant response rating, Field Bindweed: 70
[6]; [23]
  Plant response rating, Field Bindweed: 70
[7]; [25]
  Plant response rating, Foxtail, Giant: 98
[7]; [28]
  Plant response rating, Foxtail, Giant: 95
[7]; [26]
  Plant response rating, Foxtail, Giant: 100
[7]; [27]
  Plant response rating, Foxtail, Giant: 100
[8]; [25]
  Plant response rating, Foxtail, Green: 100
[8]; [28]
  Plant response rating, Foxtail, Green: 75
[8]; [26]
  Plant response rating, Foxtail, Green: 100
[8]; [27]
  Plant response rating, Foxtail, Green: 100
[9]; [25]
  Plant response rating, Horseweed: 100
[9]; [28]
  Plant response rating, Horseweed: 100
[9]; [26]
  Plant response rating, Horseweed: 100
[9]; [27]
  Plant response rating, Horseweed: 100
Kochia (Kochia scoparia); [17]
  Plant response rating, Kochia: 25
Kochia (Kochia scoparia); [22]
  Plant response rating, Kochia: 0
Kochia (Kochia scoparia); [24]
  Plant response rating, Kochia: 80
Kochia (Kochia scoparia); [23]
  Plant response rating, Kochia: 100
[10]; [25]
  Plant response rating, Morningglory: 85
[10]; [29]
  Plant response rating, Morningglory: 90
[10]; [28]
  Plant response rating, Morningglory: 85
[10]; [27]
  Plant response rating, Morningglory: 100
[11]; [25]
  Plant response rating, Nutsedge, Yellow: 15
[11]; [29]
  Plant response rating, Nutsedge, Yellow: 98
[11]; [28]
  Plant response rating, Nutsedge, Yellow: 10
[11]; [27]
  Plant response rating, Nutsedge, Yellow: 80
[12]; [17]
  Plant response rating, Panicum, Fall: 100
[12]; [19]
  Plant response rating, Panicum, Fall: 100
[12]; [22]
  Plant response rating, Panicum, Fall: 100
[12]; [23]
  Plant response rating, Panicum, Fall: 100
[13]; [17]
  Plant response rating, Pigweed, Palmer: 60
[13]; [19]
  Plant response rating, Pigweed, Palmer: 85
[13]; [23]
  Plant response rating, Pigweed, Palmer: 85
[14]; [17]
  Plant response rating, Ragweed: 95
[14]; [19]
  Plant response rating, Ragweed: 100
[14]; [22]
  Plant response rating, Ragweed: 95
[14]; [23]
  Plant response rating, Ragweed: 100
[15]; [25]
  Plant response rating, Velvetleaf: 80
[15]; [29]
  Plant response rating, Velvetleaf: 95
[15]; [28]
  Plant response rating, Velvetleaf: 50
[15]; [27]
  Plant response rating, Velvetleaf: 100

From US10597388B2, “Pyridazinone herbicides” (FMC CORPORATION, priority 2014, dated 2020)
